The results in this text go back to patent EP4741380A1, “ISOXAZOLINE COMPOUND AND USE” (priority 2024, dated 2025).

Where two headings read alike, the source gives them in different places.

This data set deals with mites. Briefly: Mite killing efficacy test with an in vitro model. To be noted: 30 µM drug solution. As to the method: Mite collection: Live mites were gently picked up from a cage box with cotton swabs or small tweezers, 17-26 live mites per group.
Drug treatment and detection method: 100 µL of a drug solution with a different concentration (drug solution prepared by 3% DMSO solution + 97% water and having a target final concentration of 30 µM) was aspirated with a pipette and added to a 24-well plate for each group, ensuring full contact between the drug and the mites. The mites were separately incubated at normal temperature for 5 min, transferred from each plate to another dry 24-well plate with the top sealed, and air-dried for about 1 h. Mite actions were observed, and the number of dead mites/the total number of mites was recorded. Then, the 24-well plate containing the mites was cultured at room temperature and relatively high humidity. The number of dead mites/the total number of mites was counted separately after 1 h, 2 h, 4 h, 6 h, 8 h, 22 h, and 24 h (time points after drug addition), and mite mortality rates were calculated. The project ended 24 h after drug addition.
At a corresponding time point, a mite mortality rate greater than or equal to 90% is denoted as "+++", a mite mortality rate less than 90% and greater than or equal to 50% is denoted as "++", and a mite mortality rate less than 50% is denoted as "+".

The mark [1] stands for this setting: 4 h after drug addition, read-out: Mite Mortality Rate 4 h.
The mark [2] stands for this setting: 24 h after drug addition, read-out: Mite Mortality Rate 24 h.

With `Cc1cc(C2=NOC(c3cc(Cl)cc(Cl)c3)(C(F)(F)F)C2)ccc1C(=O)NCC(=O)NC1(C(F)(F)F)CC1` (stereo not shown) [Example 010, 4-(5-(3,5-dichlorophenyl)-5-(trifluoromethyl)-4,5-dihydroisoxazol-3-yl)-2-methyl-N-(2-oxo-2-((1-(trifluoromethyl)cyclopropyl)amino)ethyl)benzamide], the mortality at 30 µM is 50 to 90% under setting [1] and above 90% under setting [2].
Taken in the same sequence, the figures for `Cc1c(C(=O)NCC(=O)NC2CC2)ccc(C2=NOC(c3cc(Cl)cc(Cl)c3)(C(F)(F)F)C2)c1F` (stereo not shown) [Example 043, N-(2-(cyclopropylamino)-2-oxoethyl)-4-(5-(3,5-dichlorophenyl)-5-(trifluoromethyl)-4,5-dihydroisoxazol-3-yl)-3-fluoro-2-methylbenzamide] were below 50% and 50 to 90%.
As for `Cc1cc(C2=NO[C@](c3cc(Cl)cc(Cl)c3)(C(F)(F)F)C2)ccc1C(=O)NCC(=O)NC1(C(F)(F)F)CC1` [Example 012, (R)-4-(5-(3,5-dichlorophenyl)-5-(trifluoromethyl)-4,5-dihydroisoxazol-3-yl)-2-methyl-N-(2-oxo-2-((1-(trifluoromethyl)cyclopropyl)amino)ethyl)benzamide], the mortality at 30 µM was below 50% under setting [1] and below 50% under setting [2].
For the compound `Cc1cc(C2=NOC(c3cc(Cl)cc(OC(F)(F)F)c3)(C(F)(F)F)C2)ccc1C(=O)NCC(=O)NC1(C(F)(F)F)CC1` (stereo not shown) [Example 037, 4-(5-(3-chloro-5-(trifluoromethoxy)phenyl)-5-(trifluoromethyl)-4,5-dihydroisoxazol-3-yl)-2-met hyl-N-(2-oxo-2-((1-(trifluoromethyl)cyclopropyl)amino)ethyl)benzamide], the mortality at 30 µM was 50 to 90% under setting [1] and above 90% under setting [2].
Taken in the same sequence, the figures for `O=C(CNC(=O)c1ccc(C2=NOC(c3cc(Cl)cc(Cl)c3)(C(F)(F)F)C2)cc1)NC1(C(F)(F)F)CC1` (stereo not shown) [Example 038, 4-(5-(3,5-dichlorophenyl)-5-(trifluoromethyl)-4,5-dihydroisoxazol-3-yl)-N-(2-oxo-2-((1-(trifluor omethyl)cyclopropyl)amino)ethyl)benzamide] were below 50% and above 90%.
For `Cc1cc(C2=NOC(c3cc(Cl)cc(Cl)c3)(C(F)(F)F)C2)ccc1C(=O)NCC(=O)N1CC(F)(F)C1` (stereo not shown) [Example 022, 4-(5-(3,5-dichlorophenyl)-5-(trifluoromethyl)-4,5-dihydroisoxazol-3-yl)-N-(2-(3,3-difluoroazetidin-1-yl)-2-oxoethyl)-2-methylbenzamide], the mortality at 30 µM runs as follows: under setting [1], below 50%; under setting [2], 50 to 90%.
With `Cc1cc(C2=NOC(c3cc(F)c(Cl)c(Cl)c3)(C(F)(F)F)C2)ccc1C(=O)NCC(=O)NC1(C(F)(F)F)CC1` (stereo not shown) [Example 028, 4-(5-(3,4-dichloro-5-fluorophenyl)-5-(trifluoromethyl)-4,5-dihydroisoxazol-3-yl)-2-methyl-N-(2-oxo-2-((1-(trifluoromethyl)cyclopropyl)amino)ethyl)benzamide], the mortality at 30 µM under setting [1] was 50 to 90% and the mortality at 30 µM under setting [2] was above 90%.
For the compound `Cc1cc(C2=NOC(c3cc(Cl)cc(Cl)c3)(C(F)(F)F)C2)ccc1C(=O)NCC(=O)N1CCCC1C(F)(F)F` (stereo not shown) [Example 016, 4-(5-(3,5-dichlorophenyl)-5-(trifluoromethyl)-4,5-dihydroisoxazol-3-yl)-2-methyl-N-(2-oxo-2-(2-(trifluoromethyl)pyrrolidin-1-yl)ethyl)benzamide], the mortality at 30 µM was below 50% under setting [1] and below 50% under setting [2].
`Cc1cc(C2=NO[C@](c3cc(Cl)cc(C(F)(F)F)c3)(C(F)(F)F)C2)ccc1C(=O)NCC(=O)NC1(C(F)(F)F)CC1` [Example 009, (R)-4-(5-(3-chloro-5-(trifluoromethyl)phenyl)-5-(trifluoromethyl)-4,5-dihydroisoxazol-3-yl)-2-m ethyl-N-(2-oxo-2-((1-(trifluoromethyl)cyclopropyl)amino)ethyl)benzamide]: the mortality at 30 µM by setting is: under setting [1], below 50%; under setting [2], below 50%.
In the case of `Cc1cc(C2=NOC(c3cc(Cl)cc(Cl)c3)(C(F)(F)F)C2)ccc1C(=O)NCC(=O)N1CC(C(F)(F)F)C1` (stereo not shown) [Example 023, 4-(5-(3,5-dichlorophenyl)-5-(trifluoromethyl)-4,5-dihydroisoxazol-3-yl)-2-methyl-N-(2-oxo-2-(3-(trifluoromethyl)azetidin-1-yl)ethyl)benzamide], the mortality at 30 µM by setting is: under setting [1], below 50%; under setting [2], 50 to 90%.
For `Cc1cc(C2=NOC(c3cc(Cl)cc(Cl)c3)(C(F)(F)F)C2)cc(Cl)c1C(=O)NCC(=O)NC1CC1` (stereo not shown) [Example 040, 2-chloro-N-(2-(cyclopropylamino)-2-oxoethyl)-4-(5-(3,5-dichlorophenyl)-5-(trifluoromethyl)-4,5-dihydroisoxazol-3-yl)-6-methylbenzamide] the same measures were below 50% and below 50%.
For `Cc1cc(C2=NOC(c3cc(Cl)cc(Cl)c3)(C(F)(F)F)C2)ccc1C(=O)NCC(=O)N1CC(F)(CF)C1` (stereo not shown) [Example 026, 4-(5-(3,5-dichlorophenyl)-5-(trifluoromethyl)-4,5-dihydroisoxazol-3-yl)-N-(2-(3-fluoro-3-(fluoromethyl)azetidin-1-yl)-2-oxoethyl)-2-methylbenzamide] the same measures were 50 to 90% and above 90%.
With `Cc1cc(C2=NOC(c3cc(Cl)cc(Cl)c3)(C(F)(F)F)C2)ccc1C(=O)N[C@@H](C)C(=O)NC1(C(F)(F)F)CC1` (stereo partly drawn) [Example 036, 4-(5-(3,5-dichlorophenyl)-5-(trifluoromethyl)-4,5-dihydroisoxazol-3-yl)-2-methyl-N-((S)-1-oxo-1-((1-(trifluoromethyl)cyclopropyl)amino)propan-2-yl)benzamide], the mortality at 30 µM under setting [1] was below 50% and the mortality at 30 µM under setting [2] is below 50%.
Regarding `Cc1cc(C2=NOC(c3cc(Cl)cc(C(F)(F)F)c3)(C(F)(F)F)C2)ccc1C(=O)NCC(=O)NC1(C(F)(F)F)CC1` (racemic) [Example 007, 4-(5-(3-chloro-5-(trifluoromethyl)phenyl)-5-(trifluoromethyl)-4,5-dihydroisoxazol-3-yl)-2-methy 1-N-(2-oxo-2-((1-(trifluoromethyl)cyclopropyl)amino)ethyl)benzamide], the “Mite Mortality Rate 4 h” value (4 h after drug addition) was “++ (a mite mortality rate less than 90% and greater than or equal to 50% is denoted as "++")”. For the same compound, the “Mite Mortality Rate 24 h” value (24 h after drug addition) is recorded as “+++ (a mite mortality rate greater than or equal to 90% is denoted as "+++")”.
On to `Cc1cc(C2=NOC(c3cc(Cl)cc(C(F)(F)F)c3)(C(F)(F)F)C2)ccc1C(=O)NCC(=O)N1CC(F)(CF)C1` (stereo not shown) [Example 013, 4-(5-(3-chloro-5-(trifluoromethyl)phenyl)-5-(trifluoromethyl)-4,5-dihydroisoxazol-3-yl)-N-(2-(3-fluoro-3-(fluoromethyl)azetidin-1-yl)-2-oxoethyl)-2-methylbenzamide], for which the mortality at 30 µM reads like this: under setting [1], above 90%; under setting [2], above 90%.
On to `Cc1cc(C2=NOC(c3cc(Cl)cc(Cl)c3)(C(F)(F)F)C2)ccc1C(=O)N[C@H](C)C(=O)NC1(C(F)(F)F)CC1` (stereo partly drawn) [Example 035, 4-(5-(3,5-dichlorophenyl)-5-(trifluoromethyl)-4,5-dihydroisoxazol-3-yl)-2-methyl-N-((R)-1-oxo-1-((1-(trifluoromethyl)cyclopropyl)amino)propan-2-yl)benzamide], for which the mortality at 30 µM by setting is: under setting [1], below 50%; under setting [2], 50 to 90%.
Turning to `Cc1cc(C2=NOC(c3cc(Cl)cc(Cl)c3)(C(F)(F)F)C2)ccc1C(=O)NCC(=O)NC1(C(F)(F)F)COC1` (stereo not shown) [Example 002, 4-(5-(3,5-dichlorophenyl)-5-(trifluoromethyl)-4,5-dihydroisoxazol-3-yl)-2-methyl-N-(2-oxo-2-((3-(trifluoromethyl)oxetan-3-yl)amino)ethyl)benzamide], the mortality at 30 µM is, setting by setting: under setting [1], below 50%; under setting [2], above 90%.
Taken in the same sequence, the figures for `Cc1cc(C2=NOC(c3cc(Cl)c(F)c(Cl)c3)(C(F)(F)F)C2)ccc1C(=O)NCC(=O)N1CC(F)(CF)C1` (stereo not shown) [Example 005, 4-(5-(3,5-dichloro-4-fluorophenyl)-5-(trifluoromethyl)-4,5-dihydroisoxazol-3-yl)-N-(2-(3-fluoro-3-(fluoromethyl)azetidin-1-yl)-2-oxoethyl)-2-methylbenzamide] were 50 to 90% and above 90%.
Take `Cc1cc(C2=NOC(c3cc(Cl)cc(Cl)c3)(C(F)(F)F)C2)ccc1C(=O)N(C)CC(=O)NC1(C(F)(F)F)CC1` (stereo not shown) [Example 034, 4-(5-(3,5-dichlorophenyl)-5-(trifluoromethyl)-4,5-dihydroisoxazol-3-yl)-N,2-dimethyl-N-(2-oxo-2-((1-(trifluoromethyl)cyclopropyl)amino)ethyl)benzamide]: the mortality at 30 µM is, setting by setting: under setting [1], below 50%; under setting [2], above 90%.
Turning to `Cc1cc(C2=NOC(c3cc(Cl)cc(Cl)c3)(C(F)(F)F)C2)ccc1C(=O)NCC1(NCC(F)(F)F)CC1` (stereo not shown) [Example 017], the “Mite Mortality Rate 4 h” value (4 h after drug addition) was “+ (a mite mortality rate less than 50% is denoted as "+")”. Under “24 h after drug addition”, the “Mite Mortality Rate 24 h” value was “++ (a mite mortality rate less than 90% and greater than or equal to 50% is denoted as "++")”.
